Source: patent publication US6528049B2, “Bisexual attractants, aggregants and arrestants for adults and larvae of codling moth and other species of lepidoptera” (Trece, Inc., priority 1999, dated 2003)

Legend:
Assay type in all cases: in vivo, Cydia pomonella
codling moth [1] = test: Field study of individual alcohols, aldehydes and esters; conditions: individual compounds typically of purity 90-98%
From the text: Attractive activity of these compounds for male and female codling moth was compared to purified ethyl (2E,4Z)-2,4-decadienoate.
When the cumulative evaluation of all studied compounds and/or blends containing aldehyde, alcohol, ester and terpene compounds was made, the following results clearly confirmed the findings seen in Table 3.

codling moth [2] = test: Inherent attractancy field test of HPV blends in baited sticky traps in walnut orchard; conditions: walnut orchard, blends 10 mg/white septa, ethyl (2E,4Z)-2,4-decadienoate 5 mg
Method: The blends listed in Table 2 were then field tested in walnut orchards for their attractancy to male and female codling moths, and also for enhancement with synthetic codling moth pheromone and other additives identified above. Their total capture (both males and females), and their individual male and female capture were determined and results obtained, were compared to insect capture obtained with purified individual ester, compound #25 namely ethyl (2E,4Z)-2,4-decadienoate, and to the codling moth male sex pheromone compound #26 in Table 3.
Individual blends containing representative aldehyde, alcohol, ester, monoterpene or sesquiterpene blends were provided in the traps in 10 mg/white septa.
Individual host-plant volatile (HPV) blends identified by the #1-23 in Table 3 were tested for codling moth attractancy in a walnut orchard, and the results were compared to the isolated purified ethyl (2E,4Z)-2,4-decadienoate (#25), to pheromone (#26) and to solvent controls (#24).
Twenty-five HPV blends and eight individual compounds were field tested. One synthetic blend, “ester blend #10,” elicited excellent codling moth attraction. In field tests, the other tested blends (see Table 3) and compounds captured no moths over a three month period, except for an “apple-skin surface extract” (Golden Delicious, ether solvent) (Σ=3 codling moth captured, 1♂: 2♀♀) and the individual compound, (E,E)-α-farnesene (Σ=1♂ codling moth captured). The field tests are presented in Table 3 and show attraction specificity for HPV ester blend #10.
Sticky traps (ICP and IIB traps, Trécé, Inc. Salinas, Calif.) were baited with either extracts, blends of HPVs, or individual HPVs (>95% purity) that evaporated from impregnated rubber septa. HPV blends, or individual HPV compounds, were diluted in hexane and pipetted onto rubber septa at approximate doses of 10 mg/septum. A single treatment septum was placed in each sticky wing-trap, and hung approximately six meters high in the outer walnut canopy. Trap liners and treatment HPV septa were replaced every 10-14 days and pheromone septa every month and tests were conducted throughout two summers.
A replicated series of different HPV treatment traps, control “blank” (unbaited) trap, and a commercial pheromone-baited trap (Trécé, Inc.) were distributed 5 trees apart throughout two distant Hartley walnut orchards and validated in 12 walnut orchards. The orchards were distinct, with one using three summer insecticide sprays and the other had no spraying. Thus, these test orchards had low vs. moderate relative populations of codling moths. Significant effects on the gender of codling moths captured were judged by paired tests, either T-test or a nonparametric test.

codling moth [3] = test: Trap capture with proportional mixes of ethyl 2,4-decadienoate isomers; conditions: 1 mg dose/gray septum
Method: Additionally, studies were performed to determine the attraction of codling moth to proportional mixes of (2E,4Z) and (2E,4E) isomers of ethyl 2,4-decadienoate and highly purified samples of each. Traps were baited with 1 mg dose/gray septum.

[4] = test system: first-instar or neonate larval worms of the codling moth; test: Dual-choice larval orientation bioassay in petri dishes
Method: Behavioral orientation responses in the laboratory of first-instar or neonate larval worms of the codling moth are seen in Table 16. Data shown in Table 16 represents means of to 50 bioassay replications using five neonates per experiment conducted in small areas (10 cm diameter petri dishes). Experiments were dual-choice tests, where the released neonate larvae crawled and made perceptual choices between two small (one cm diameter) filter paper discs, with one disk treated with 1 ug or 10 ug of ethyl (2E,4Z) decadienoate and the other disc treated with an equivalent volume of solvent (methylene chloride).

codling moth [5] = test: Sticky traps baited with the single compound or pheromone
From the text: FIG. 5 illustrates mean attraction of female and male codling moths to sticky traps baited with a single host plant volatile, ethyl (2E,4Z)-2,4-decadienoate. The attraction was followed over a two month period.

codling moths = test: Effect of sample purity on trap capture
Method: Additional purification procedures were conducted to show the differences and superiority of purified pear and apple volatiles over commercially available products. For that purpose, extracts were purified from commercially available compounds, typically available in only about 80-85% purity, to a purity between 90-100%, preferably over 98% purity. As the purity of the sample of ethyl (2E,4Z)-2,4-decadienoate increased so also did its attractancy to codling moths. For example, the mean captures (±SEM) were 4.5 (±2.0) for an 86% pure sample, 6.5 (±4.4) for a 93.6% pure sample and 9.3 (±3.2) for 98.8% pure sample.

codling moth [6] = test: Low loading dose response trap study (FIG. 13); conditions: loading doses 0.1 μg to 10 mg in grey septa
Method: In this study, both males (-Δ-) and females (-□-) responded to a threshold dose of less than 10 μg of the ester attractant, while at progressively higher loading rates females were more responsive than males.

codling moth [7] = test: Trap capture in a pheromone mating disruption treated walnut orchard; conditions: 10 mg/lure, FIG. 6
Method: FIG. 6 illustrates total capture of codling moth males and females, in a mating disruption treated orchard by using pheromone lures (-▴-) and by using lures containing ethyl (2E,4Z)-2,4-decadienoate (-♦-) (10 mg/lure)

[8] = five neonates per experiment, disc with 1 ug or 10 ug vs solvent disc
[9] = Table 15, sticky trap, 3 traps, 43 trap checks (pheromone: 1 trap, 19 trap checks)

CCCCC/C=C\C=C\C(=O)OCC [Ethyl (2E,4Z)-2,4-Decadienoate, ethyl (2E,4Z)-2,4-decadienoate]
attractancy to male and female codling moth (in words) (codling moth [1]): most active
FEMALE CM Captured with HPV; ♀♀/trap night ± SEM (codling moth [2]): 2.04 ± 0.85 ♀♀/trap night
MALE CM Captured with HPV; ♂♂/trap/night ± SEM (codling moth [2]): 1.42 ± 0.59 ♂♂/trap/night
Total CM Captured with HPV: (CM/trap/night ± SEM) (codling moth [2]): 3.46 ± 1.44 CM/trap/night
Total CM Captured with HPV: (CM/trap/night ± SEM) (codling moth [2]; listed as #25): 3.46 CM/trap/night
Female CM Captured ♀♀/trap/night ± SEM (codling moth [3]): 0.76 ± 0.10 ♀♀/trap/night
MALE CM Captured: ♂♂/trap/night ± SEM (codling moth [3]): 0.62 ± 0.29 ♂♂/trap/night
Total CM Captured: CM/trap ± SEM (codling moth [3]): 1.38 ± 0.37 CM/trap
Arrestment; average time (sec) on or under disc: ([4]; 1 ug dose of attractant): 19.7 ± 5.6 s
Arrestment; average time (sec) on or under disc: ([4]; 10 ug dose of attractant): 33.0 ± 10.7 s
Attraction; average number of neonates contacting disc: x ± SEM [4, 8]: 4.5 ± 0.9
Latency: average time (sec) to first arrive at disc: x ± SEM [4, 8]: 74.5 ± 16.1 s
Female Capture: Sum: (codling moth [5]; Table 15, sticky trap): 76.4 Moths/Trap/Night
Male Capture: Sum: (codling moth [5]; Table 15, sticky trap): 24.9 Moths/Trap/Night
Female Capture: Mean ± SEM (codling moth [5]; [9]): 1.78 ± 0.45 Moths/Trap/Night
Male Capture: Mean ± SEM (codling moth [5]; [9]): 0.58 ± 0.12 Moths/Trap/Night
attractiveness relative to pheromone (codling moth [5]; sticky traps, two month period): approximately 48%
mean captures (±SEM) (codling moths; 86% pure sample): 4.5 (±2.0)
mean captures (±SEM) (codling moths; 93.6% pure sample): 6.5 (±4.4)
mean captures (±SEM) (codling moths; 98.8% pure sample): 9.3 (±3.2)
threshold dose to which males and females responded (codling moth [6]): less than 10 μg
number of codling moths captured relative to lures with pheromone only (codling moth [7]): more than double
